Source: patent US6737383B1, “Herbicidal oxadiazolidines” (priority 1999, dated 2004)

Assays:
[1] = test system: rice; experiment: Test B flood test rice; format: in vivo, Oryza sativa
Procedure, shortened: (§1)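 Each value is a visual injury score relative to controls, with 10 meaning complete control and 0 no effect. Evaluation took place twelve to sixteen days after the 2-leaf-stage plants were treated and kept in the greenhouse.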

[2] = test system: pigweed; experiment: Test B pre/postemergence pigweed; format: in vivo, Amaranthus retroflexus
Procedure, shortened: (§2)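 Test chemicals in a non-phytotoxic solvent mixture with surfactant were sprayed preemergence onto planted seeds and postemergence onto plants 2 to 18 cm tall (1- to 4-leaf stage). After twelve to sixteen days in a greenhouse, injury was visually rated against untreated controls from 0 (no effect) to 10 (complete control).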

[3] = test system: duck salad; experiment: Test B flood test duck salad; format: in vivo, Heteranthera limosa
Procedure, shortened: as §1

[4] = test system: velvetleaf; experiment: Test B pre/postemergence velvetleaf; format: in vivo, Abutilon theophrasti
Procedure, shortened: as §2

[5] = test system: bamyardgrass; experiment: Test B flood test barnyardgrass; format: in vivo, Echinochloa crus-galli
Procedure, shortened: as §1

[6] = test system: blackgrass; experiment: Test B pre/postemergence blackgrass; format: in vivo, Alopecurus myosuroides
Procedure, shortened: as §2

[7] = test system: wheat; experiment: Test B pre/postemergence wheat; format: in vivo, Triticum aestivum
Procedure, shortened: as §2

[8] = test system: crabgrass; experiment: Test B pre/postemergence crabgrass; format: in vivo, Digitaria sanguinalis
Procedure, shortened: as §2

[9] = test system: bedstraw; experiment: Test B pre/postemergence bedstraw; format: in vivo, Galium aparine; conditions: Preemergence, scale of 0 to 10 where 0 is no effect and 10 is complete control
Procedure, shortened: as §2

[10] = test system: purple nutsedge; experiment: Test B pre/postemergence purple nutsedge; format: in vivo, Cyperus rotundus
Procedure, shortened: as §2

[11] = test system: surinam grass; experiment: Test B pre/postemergence surinam grass; format: in vivo, Brachiaria decumbens
Procedure, shortened: as §2

[12] = test system: giant foxtail; experiment: Test B pre/postemergence giant foxtail; format: in vivo, Setaria faberii
Procedure, shortened: as §2

[13] = test system: sugar beet; experiment: Test B pre/postemergence sugar beet; format: in vivo, Beta vulgaris
Procedure, shortened: as §2

[14] = test system: cocklebur; experiment: Test B pre/postemergence cocklebur; format: in vivo, Xanthium strumarium
Procedure, shortened: as §2

[15] = test system: wild oat; experiment: Test B pre/postemergence wild oat; format: in vivo, Avena fatua
Procedure, shortened: as §2

[16] = test system: morningglory; experiment: Test B pre/postemergence morningglory; format: in vivo, Ipomoea hederacea
Procedure, shortened: as §2

[17] = Rate 62 g/ha, headed Pre-emergence (flood test species), scale 0 to 10 (0 no effect, 10 complete control)
[18] = Rate 125 g/ha, Pre-emergence, flood test species, scale 0 to 10 where 0 is no effect and 10 is complete control
[19] = Rate 250 g/ha, Pre-emergence, flood-test species, scale 0 to 10, 0 is no effect, 10 is complete control
[20] = Rate 500 g/ha, Pre-emergence, flood test species, scale 0 to 10 (0 no effect, 10 complete control)
[21] = Preemergence, Rate 62 g/ha, scale of 0 to 10 where 0 is no effect and 10 is complete control
[22] = Preemergence, Rate 250 g/ha, scale of 0 to 10 where 0 is no effect and 10 is complete control
[23] = Preemergence, Rate 500 g/ha, scale of 0 to 10 where 0 is no effect and 10 is complete control
[24] = Rate 62 g/ha, Postemergence, scale 0 to 10 (0 no effect, 10 complete control)
[25] = Rate 125 g/ha, Postemergence, scale of 0 to 10 where 0 is no effect and 10 is complete control
[26] = Rate 125 g/ha, Preemergence, scale of 0 to 10 where 0 is no effect and 10 is complete control
[27] = Rate 250 g/ha, Postemergence, scale of 0 to 10 where 0 is no effect and 10 is complete control
[28] = Rate 500 g/ha, Postemergence, scale 0 to 10, 0 no effect, 10 complete control

CC1Cc2cccc(-n3c(=O)on(C(=O)N(c4ccc(F)cc4)C(C)C)c3=O)c2O1 (stereo not shown) [Compound 281]
1: Velvetleaf plant response rating [4, 25] | Plant response rating, Velvetleaf [4, 27] | Velvetleaf plant response rating [4, 28] | Blackgrass plant response rating [6, 26]
0: Rice plant response rating [1, 17] | Rice plant response rating [1, 18] | Rice plant response rating [1, 19] | Rice plant response rating [1, 20] | Redroot pigweed plant response rating [2, 21] | Redroot pigweed plant response rating [2, 22] | Plant response rating, Redroot pigweed [2, 23] | Redroot pigweed plant response rating [2, 24] | Redroot pigweed plant response rating [2, 26] | Ducksalad plant response rating [3, 17] | Ducksalad plant response rating [3, 18] | Ducksalad plant response rating [3, 19] | Ducksalad plant response rating [3, 20] | Velvetleaf plant response rating [4, 21] | Velvetleaf plant response rating [4, 22] | Plant response rating, Velvetleaf [4, 23] | Velvetleaf plant response rating [4, 24] | Velvetleaf plant response rating [4, 26] | Barnyardgrass plant response rating [5, 17] | Barnyardgrass plant response rating [5, 18] | Blackgrass plant response rating [6, 21] | Blackgrass plant response rating [6, 24] | Blackgrass plant response rating [6, 25] | Plant response rating, Blackgrass [6, 27] | Wheat plant response rating [7, 21] | Wheat plant response rating [7, 22] | Plant response rating, Wheat [7, 23] | Wheat plant response rating [7, 24] | Wheat plant response rating [7, 25] | Wheat plant response rating [7, 26] | Plant response rating, Wheat [7, 27] | Wheat plant response rating [7, 28] | Crabgrass plant response rating [8, 24] | Crabgrass plant response rating [8, 25] | Plant response rating, Crabgrass [8, 27] | Crabgrass plant response rating [8, 28] | Bedstraw plant response rating ([9]; Rate 62 g/ha) | Nutsedge plant response rating [10, 21] | Nutsedge plant response rating [10, 22] | Plant response rating, Nutsedge [10, 23] | Nutsedge plant response rating [10, 24] | Nutsedge plant response rating [10, 25] | Nutsedge plant response rating [10, 26] | Plant response rating, Nutsedge [10, 27] | Nutsedge plant response rating [10, 28] | B. signalgrass plant response rating [11, 21] | B. signalgrass plant response rating [11, 22] | Plant response rating, B. signalgrass [11, 23] | B. signalgrass plant response rating [11, 24] | B. signalgrass plant response rating [11, 25] | B. signalgrass plant response rating [11, 26] | Plant response rating, B. signalgrass [11, 27] | B. signalgrass plant response rating [11, 28] | Giant foxtail plant response rating [12, 24] | Giant foxtail plant response rating [12, 25] | Plant response rating, Giant foxtail [12, 27] | Giant foxtail plant response rating [12, 28] | Sugarbeets plant response rating [13, 21] | Sugarbeets plant response rating [13, 22] | Plant response rating, Sugarbeets [13, 23] | Sugarbeets plant response rating [13, 24] | Sugarbeets plant response rating [13, 25] | Sugarbeets plant response rating [13, 26] | Plant response rating, Sugarbeets [13, 27] | Cocklebur plant response rating [14, 22] | Plant response rating, Cocklebur [14, 23] | Cocklebur plant response rating [14, 24] | Cocklebur plant response rating [14, 25] | Plant response rating, Cocklebur [14, 27] | Cocklebur plant response rating [14, 28] | Wild oats plant response rating [15, 21] | Wild oats plant response rating [15, 24] | Wild oats plant response rating [15, 25] | Plant response rating, Wild oats [15, 27] | Wild oats plant response rating [15, 28] | Morningglory plant response rating [16, 21] | Morningglory plant response rating [16, 22] | Plant response rating, Morningglory [16, 23] | Morningglory plant response rating [16, 26]
2: Redroot pigweed plant response rating [2, 25] | Barnyardgrass plant response rating [5, 20] | Blackgrass plant response rating [6, 22] | Blackgrass plant response rating [6, 28] | Crabgrass plant response rating [8, 21] | Wild oats plant response rating [15, 22] | Morningglory plant response rating [16, 24] | Morningglory plant response rating [16, 25]
3: Bedstraw plant response rating ([9]; Rate 125 g/ha) | Plant response rating, Wild oats [15, 23] | Plant response rating, Morningglory [16, 27]
5: Plant response rating, Redroot pigweed [2, 27] | Morningglory plant response rating [16, 28]
7: Giant foxtail plant response rating [12, 21]
9: Giant foxtail plant response rating [12, 26]
4: Barnyardgrass plant response rating [5, 19] | Plant response rating, Blackgrass [6, 23] | Sugarbeets plant response rating [13, 28]
10: Crabgrass plant response rating [8, 22] | Plant response rating, Crabgrass [8, 23] | Crabgrass plant response rating [8, 26] | Plant response rating, Bedstraw ([9]; Rate 500 g/ha) | Giant foxtail plant response rating [12, 22] | Plant response rating, Giant foxtail [12, 23]
6: Redroot pigweed plant response rating [2, 28] | Bedstraw plant response rating ([9]; Rate 250 g/ha)
